Assays:
Conditions in all cases: 72 h
U2OS [1] = assay: relative viability EC50 (midpoint between 100% and the lowest measured viability); higher = less toxic
Vero E6 [2] = assay: as above
HepG2 [3] = assay: as above
Calu-3 [4] = assay: as above
Caco-2 [5] = assay: as above
U2OS [6] = assay: drug sensitivity score (DSS) for viability; higher = more toxic; extreme values may be limits of the assay
Vero E6 [7] = assay: as above
HepG2 [8] = assay: as above
Calu-3 [9] = assay: as above
Caco-2 [10] = assay: as above
U2OS [11] = assay: cell viability relative to DMSO; higher = less toxic
Vero E6 [12] = assay: as above
HepG2 [13] = assay: as above
Calu-3 [14] = assay: as above
Caco-2 [15] = assay: as above

Compound | relative viability EC50 (U2OS [1]) [µM] | relative viability EC50 (Vero E6 [2]) [µM] | relative viability EC50 (HepG2 [3]) [µM] | relative viability EC50 (Calu-3 [4]) [µM] | relative viability EC50 (Caco-2 [5]) [µM] | drug sensitivity score (U2OS [6]) | drug sensitivity score (Vero E6 [7]) | drug sensitivity score (HepG2 [8]) | drug sensitivity score (Calu-3 [9]) | drug sensitivity score (Caco-2 [10]) | cell viability (U2OS [11]; 1 nM) [%] | cell viability (U2OS [11]; 10 nM) [%] | cell viability (U2OS [11]; 100 nM) [%] | cell viability (U2OS [11]; 1000 nM) [%] | cell viability (U2OS [11]; 10000 nM) [%] | cell viability (Vero E6 [12]; 1 nM) [%] | cell viability (Vero E6 [12]; 10 nM) [%] | cell viability (Vero E6 [12]; 100 nM) [%] | cell viability (Vero E6 [12]; 1000 nM) [%] | cell viability (Vero E6 [12]; 10000 nM) [%] | cell viability (HepG2 [13]; 1 nM) [%] | cell viability (HepG2 [13]; 10 nM) [%] | cell viability (HepG2 [13]; 100 nM) [%] | cell viability (HepG2 [13]; 1000 nM) [%] | cell viability (HepG2 [13]; 10000 nM) [%] | cell viability (Calu-3 [14]; 1 nM) [%] | cell viability (Calu-3 [14]; 10 nM) [%] | cell viability (Calu-3 [14]; 100 nM) [%] | cell viability (Calu-3 [14]; 1000 nM) [%] | cell viability (Calu-3 [14]; 10000 nM) [%] | cell viability (Caco-2 [15]; 1 nM) [%] | cell viability (Caco-2 [15]; 10 nM) [%] | cell viability (Caco-2 [15]; 100 nM) [%] | cell viability (Caco-2 [15]; 1000 nM) [%] | cell viability (Caco-2 [15]; 10000 nM) [%]
C[N+](C)(C)[C@@H](Cc1c[nH]c(=S)[nH]1)C(=O)O [L-ergothioneine] | > 10 | > 10 | > 10 | > 10 | > 10 | 0 | 0 | 0.7 | 0 | 0 | 96 | 94.1 | 98.2 | 92.4 | 95.6 | 94.3 | 94.9 | 96.5 | 109 | 106 | 83.4 | 88.9 | 102 | 98.8 | 80.4 | 97.2 | 97.7 | 95.2 | 108 | 95.4 | 100 | 101 | 114 | 105 | 97.3
N[C@@H](Cn1oc(=O)[nH]c1=O)C(=O)O [L-quisqualic-acid] | > 10 | > 10 | > 10 | > 10 | > 10 | 0 | 0 | 0 | 0 | 0 | 99.2 | 104 | 101 | 101 | 95.7 | 101 | 100 | 98.7 | 96.8 | 102 | 89.7 | 99.1 | 91 | 89.8 | 107 | 87.9 | 96.2 | 100 | 93.1 | 94.9 | 99.1 | 94 | 91.9 | 97 | 97.5
Fc1ccc(-c2c3cccc(C(F)(F)F)c3nn2Cc2ccc(F)cc2Cl)cc1 [LXR-623] | > 10 | > 10 | > 10 | > 10 | > 10 | 0 | 0 | 1.9 | 0 | 0.2 | 102 | 98.2 | 102 | 97.1 | 97.4 | 105 | 105 | 102 | 98 | 98.6 | 95.5 | 94.4 | 87.9 | 90.2 | 77.2 | 101 | 97.3 | 97 | 93.7 | 91.2 | 102 | 92 | 94.5 | 96.5 | 83.2
Cc1ccc(S(=O)(=O)n2c(N)nc3ccccc32)cc1 [ML130] | > 10 | > 10 | > 10 | > 10 | > 10 | 0 | 0 | 0 | 0 | 0 | 104 | 108 | 105 | 103 | 97.3 | 103 | 108 | 103 | 109 | 96.2 | 98 | 107 | 111 | 100 | 104 | 103 | 89.2 | 99.5 | 101 | 103 | 107 | 97 | 107 | 101 | 90.5
NC(=O)C1=CN([C@@H]2O[C@H](COP(=O)(O)OP(=O)(O)OC[C@H]3O[C@@H](n4cnc5c(N)ncnc54)[C@H](OP(=O)(O)O)[C@@H]3O)[C@@H](O)[C@H]2O)C=CC1 [NADPH] | > 10 | > 10 | > 10 | > 10 | > 10 | 0 | 0 | 0 | 0.1 | 0 | 94.1 | 101 | 98.4 | 102 | 98.1 | 105 | 86 | 103 | 94.6 | 99.5 | 101 | 104 | 97.7 | 86.2 | 104 | 90.8 | 85.1 | 87.7 | 91 | 101 | 86.7 | 92.7 | 88.4 | 93 | 91.9
c1ccc(-c2nc(CN3CCN(c4ncccn4)CC3)c[nH]2)cc1 [NGD-94-1] | > 10 | > 10 | > 10 | > 10 | > 10 | 0 | 0 | 0 | 0 | 0 | 100 | 95.5 | 98.4 | 92.5 | 109 | 93.2 | 97.5 | 91.5 | 92.9 | 105 | 98.2 | 97.3 | 94.1 | 101 | 105 | 79.7 | 93.8 | 85.5 | 95.7 | 108 | 99.7 | 106 | 91.9 | 102 | 111
Cc1cc(O)c(-c2ccc([C@@H](C)CN)cc2)c2c1[nH]c(=O)c1sccc12 [OTS514] | 0.291 | 1.95 | 0.0917 | 0.16 | 0.21 | 18.2 | 7.6 | 24.2 | 16.7 | 14.9 | 96.3 | 97.8 | 96.6 | 1.1 | 1.1 | 102 | 98.8 | 93.2 | 85.4 | 6 | 109 | 99.4 | 46.3 | 3.1 | 1.1 | 105 | 92.5 | 81.7 | 23.9 | 38.8 | 98.6 | 87.1 | 83.6 | 29.9 | 25.5
COc1ccccc1C(=O)Nc1cc2c(cc1N1CCCC1)n(C)c(=O)n2C [PFI-4] | > 10 | > 10 | > 10 | > 10 | > 10 | 0 | 0 | 0 | 0 | 1.6 | 101 | 101 | 97.6 | 99.4 | 92 | 99.2 | 102 | 96.2 | 92.2 | 89 | 92.7 | 93.1 | 94.1 | 96.5 | 91.5 | 93.7 | 104 | 94.7 | 106 | 98 | 104 | 99.8 | 92.7 | 89.1 | 77.6
CCCCOc1cc(CC2CNC(=O)N2)ccc1OC (stereo not given) [Ro-20-1724] | > 10 | > 10 | > 10 | > 10 | > 10 | 0 | 0 | 0.1 | 0 | 0 | 96.3 | 102 | 95.2 | 107 | 102 | 95.4 | 94.8 | 101 | 95.1 | 99.1 | 101 | 91.6 | 105 | 91.1 | 89.5 | 97.1 | 105 | 104 | 108 | 96.8 | 97.3 | 96.8 | 102 | 103 | 110
N[C@@H](CCC(=O)N[C@@H](CSN=O)C(=O)NCC(=O)O)C(=O)O [S-nitrosoglutathione] | > 10 | > 10 | > 10 | > 10 | > 10 | 0 | 0 | 0 | 0 | 0 | 98 | 97.6 | 92.9 | 98.3 | 101 | 93.6 | 97.2 | 95.2 | 95.2 | 101 | 102 | 98.4 | 108 | 91.7 | 99 | 94 | 99.2 | 93.9 | 108 | 108 | 101 | 98.2 | 96.3 | 87.9 | 99.9
COc1ccc(CCNCc2ccc(OCc3ccc(Cl)nc3)c(OC)c2)cc1OC [SBE-13] | > 10 | > 10 | > 10 | > 10 | > 10 | 0 | 0 | 0 | 0 | 0 | 98 | 103 | 102 | 98.8 | 95.2 | 107 | 104 | 101 | 98.5 | 97.3 | 107 | 105 | 102 | 96.1 | 94 | 108 | 97.8 | 93.3 | 99.1 | 93.8 | 90.3 | 94.3 | 92.1 | 98.2 | 95.3
NC(=O)c1ccc2[nH]ccc2c1 [SD-169] | > 10 | > 10 | > 10 | > 10 | > 10 | 0 | 0 | 0.3 | 0 | 0 | 104 | 104 | 102 | 98.9 | 101 | 98.8 | 99.1 | 92.6 | 97.6 | 89.8 | 93.7 | 92.4 | 102 | 102 | 83.4 | 103 | 87.6 | 98.5 | 99.6 | 101 | 94.7 | 90.8 | 100 | 92.9 | 99.2
O=C(O)CCc1cc(C(=O)c2ccc(OC3CCCC3)cc2O)ccc1OCc1ccc2c(O)noc2c1 [T-5224] | > 10 | > 10 | > 10 | > 10 | > 10 | 0 | 0 | 0 | 0 | 0 | 97.6 | 99.2 | 95.9 | 99.9 | 96.4 | 93.9 | 101 | 97.2 | 102 | 94.9 | 97.9 | 93 | 105 | 102 | 96.4 | 97.3 | 106 | 92.3 | 93.9 | 100 | 106 | 99.2 | 101 | 93.6 | 94
O=[N+]([O-])c1cn2c(n1)OC[C@@H](OCc1ccc(-c3ccc(OC(F)(F)F)cc3)nc1)C2 [TBA-354] | > 10 | > 10 | > 10 | > 10 | > 10 | 0 | 0 | 0 | 0 | 0 | 98.3 | 98.8 | 102 | 100 | 98.8 | 96.7 | 101 | 93.6 | 99 | 104 | 92.9 | 108 | 89.4 | 110 | 105 | 101 | 103 | 106 | 96.1 | 98.5 | 99.5 | 95.4 | 103 | 92.1 | 92.9

From the supplement of paper PMC13380429
